How the values were obtained:
Test in all cases: biochemical
Type in all cases: binding
panel of 442 kinases [1] = target: T1, panel of 442 kinases (Homo sapiens, UniProt Q15569); details: kinase TESK1; for remaining activity at 1 µM: read-out: TESK1 (% of control at 1 µM)
T1 construct: purchased Ambit Biosciences (scanMAXX KINOMEscan)

panel of 442 kinases [2] = target: T2, panel of 442 kinases (Homo sapiens, UniProt Q8IY84); details: kinase NIM1; for remaining activity at 1 µM: read-out: % of control at 1 µM
T2 construct: purchased Ambit Biosciences (scanMAXX KINOMEscan)
T2 sequence (Q8IY84 whole entry): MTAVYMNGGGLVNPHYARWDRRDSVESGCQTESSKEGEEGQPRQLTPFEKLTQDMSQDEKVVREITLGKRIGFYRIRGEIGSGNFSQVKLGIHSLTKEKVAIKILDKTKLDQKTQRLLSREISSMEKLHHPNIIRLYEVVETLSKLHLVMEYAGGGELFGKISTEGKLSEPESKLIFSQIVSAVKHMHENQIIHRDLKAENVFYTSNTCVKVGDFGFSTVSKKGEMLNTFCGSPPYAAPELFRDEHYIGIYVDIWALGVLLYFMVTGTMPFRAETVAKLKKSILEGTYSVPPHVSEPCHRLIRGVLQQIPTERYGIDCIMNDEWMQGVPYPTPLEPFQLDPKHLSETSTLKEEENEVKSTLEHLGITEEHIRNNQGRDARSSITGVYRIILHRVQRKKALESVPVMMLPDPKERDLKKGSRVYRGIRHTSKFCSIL

panel of 442 kinases [3] = target: T3, panel of 442 kinases (Homo sapiens, UniProt Q06187); details: BTK; for remaining activity at 1 µM: read-out: % of control at 1 µM
T3 construct: purchased Ambit Biosciences (scanMAXX KINOMEscan)
T3 sequence (Q06187 whole entry): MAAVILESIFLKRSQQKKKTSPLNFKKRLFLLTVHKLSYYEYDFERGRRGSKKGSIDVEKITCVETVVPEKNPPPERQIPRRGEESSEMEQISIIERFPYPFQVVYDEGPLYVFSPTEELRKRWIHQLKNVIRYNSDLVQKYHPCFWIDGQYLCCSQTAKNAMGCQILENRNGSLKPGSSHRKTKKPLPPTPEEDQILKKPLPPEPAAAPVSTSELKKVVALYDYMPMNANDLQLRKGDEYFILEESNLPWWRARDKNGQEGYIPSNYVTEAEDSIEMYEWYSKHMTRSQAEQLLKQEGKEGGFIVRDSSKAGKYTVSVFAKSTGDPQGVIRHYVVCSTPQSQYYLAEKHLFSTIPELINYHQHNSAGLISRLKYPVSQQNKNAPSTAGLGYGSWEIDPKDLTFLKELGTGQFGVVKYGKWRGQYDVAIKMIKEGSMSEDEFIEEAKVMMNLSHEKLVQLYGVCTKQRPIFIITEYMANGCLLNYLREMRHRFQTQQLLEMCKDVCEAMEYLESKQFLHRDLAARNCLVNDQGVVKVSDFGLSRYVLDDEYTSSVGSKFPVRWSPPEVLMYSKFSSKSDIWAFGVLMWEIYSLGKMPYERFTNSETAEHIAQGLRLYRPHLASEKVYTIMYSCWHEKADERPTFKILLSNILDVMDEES

panel of 442 kinases [4] = target: T4, panel of 442 kinases (Homo sapiens, UniProt Q16620); details: kinase TRKB; for remaining activity at 1 µM: read-out: TRKB (% of control at 1 µM)
T4 construct: purchased Ambit Biosciences (scanMAXX KINOMEscan)

panel of 442 kinases [5] = target: T5, panel of 442 kinases (Homo sapiens, UniProt Q16659); details: ERK3; for remaining activity at 1 µM: read-out: % of control at 1 µM
T5 construct: purchased Ambit Biosciences (scanMAXX KINOMEscan)
T5 sequence (Q16659 whole entry): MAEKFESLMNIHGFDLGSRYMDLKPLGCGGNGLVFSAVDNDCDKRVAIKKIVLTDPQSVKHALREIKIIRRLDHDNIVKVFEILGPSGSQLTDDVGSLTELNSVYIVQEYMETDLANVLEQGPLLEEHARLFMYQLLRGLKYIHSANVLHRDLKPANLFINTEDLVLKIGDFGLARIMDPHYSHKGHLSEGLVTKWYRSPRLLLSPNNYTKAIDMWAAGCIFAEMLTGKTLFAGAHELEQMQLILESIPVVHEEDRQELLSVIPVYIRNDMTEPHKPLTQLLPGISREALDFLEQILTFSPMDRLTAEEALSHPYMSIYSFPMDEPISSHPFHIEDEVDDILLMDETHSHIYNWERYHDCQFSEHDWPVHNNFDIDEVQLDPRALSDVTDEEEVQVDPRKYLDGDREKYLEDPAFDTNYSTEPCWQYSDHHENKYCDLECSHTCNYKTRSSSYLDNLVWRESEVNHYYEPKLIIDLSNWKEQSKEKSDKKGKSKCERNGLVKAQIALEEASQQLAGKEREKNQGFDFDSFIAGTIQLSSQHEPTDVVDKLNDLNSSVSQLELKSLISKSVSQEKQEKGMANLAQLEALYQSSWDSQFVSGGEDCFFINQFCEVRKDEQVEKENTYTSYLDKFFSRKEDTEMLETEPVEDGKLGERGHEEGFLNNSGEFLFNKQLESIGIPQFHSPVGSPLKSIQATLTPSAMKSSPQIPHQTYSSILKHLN

panel of 442 kinases [6] = target: T6, panel of 442 kinases (Homo sapiens, UniProt Q8N5S9); details: CAMKK1; for remaining activity at 1 µM: read-out: % of control at 1 µM
T6 construct: purchased Ambit Biosciences (scanMAXX KINOMEscan)
T6 sequence (Q8N5S9 whole entry): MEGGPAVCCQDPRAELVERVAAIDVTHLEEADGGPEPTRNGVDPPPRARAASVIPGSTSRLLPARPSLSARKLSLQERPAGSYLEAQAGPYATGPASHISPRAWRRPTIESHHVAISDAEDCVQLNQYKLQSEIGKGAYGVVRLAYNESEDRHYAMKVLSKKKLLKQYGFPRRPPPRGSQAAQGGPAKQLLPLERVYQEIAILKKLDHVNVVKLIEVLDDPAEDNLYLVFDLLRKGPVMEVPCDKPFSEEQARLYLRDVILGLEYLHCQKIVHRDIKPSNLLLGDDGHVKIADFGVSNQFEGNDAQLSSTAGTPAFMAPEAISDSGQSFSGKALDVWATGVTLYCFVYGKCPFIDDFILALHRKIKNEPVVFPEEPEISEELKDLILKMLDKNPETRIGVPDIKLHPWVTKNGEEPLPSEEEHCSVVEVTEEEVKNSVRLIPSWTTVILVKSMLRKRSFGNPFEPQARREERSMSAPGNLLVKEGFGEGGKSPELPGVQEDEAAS

panel of 442 kinases [7] = target: T7, panel of 442 kinases (Homo sapiens, UniProt Q9H1R3); details: kinase MYLK2; for remaining activity at 1 µM: read-out: % of control at 1 µM
T7 construct: purchased Ambit Biosciences (scanMAXX KINOMEscan)
T7 sequence (Q9H1R3 whole entry): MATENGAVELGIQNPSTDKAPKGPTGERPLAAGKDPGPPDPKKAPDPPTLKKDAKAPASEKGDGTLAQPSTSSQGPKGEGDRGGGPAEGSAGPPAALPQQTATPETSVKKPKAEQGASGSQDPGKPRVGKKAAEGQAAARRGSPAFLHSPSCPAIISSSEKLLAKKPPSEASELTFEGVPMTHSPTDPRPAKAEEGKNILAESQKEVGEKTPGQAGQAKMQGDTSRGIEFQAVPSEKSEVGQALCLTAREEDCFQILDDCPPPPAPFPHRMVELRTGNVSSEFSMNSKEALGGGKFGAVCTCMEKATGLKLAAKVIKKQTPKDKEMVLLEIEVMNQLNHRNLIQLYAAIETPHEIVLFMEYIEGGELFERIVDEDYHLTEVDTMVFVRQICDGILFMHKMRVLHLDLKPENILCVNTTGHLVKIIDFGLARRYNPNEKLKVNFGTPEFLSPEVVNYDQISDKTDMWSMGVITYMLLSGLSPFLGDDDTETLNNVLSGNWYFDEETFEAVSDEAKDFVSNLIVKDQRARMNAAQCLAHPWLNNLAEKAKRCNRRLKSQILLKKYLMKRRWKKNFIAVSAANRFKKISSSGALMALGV

panel of 442 kinases [8] = target: T8, panel of 442 kinases (Homo sapiens, UniProt Q8WU08); details: kinase YANK1; for remaining activity at 1 µM: read-out: YANK1 (% of control at 1 µM)
T8 construct: purchased Ambit Biosciences (scanMAXX KINOMEscan)

panel of 442 kinases [9] = target: T9, panel of 442 kinases (Homo sapiens, UniProt Q9UKE5); details: kinase TNIK; for remaining activity at 1 µM: read-out: TNIK (% of control at 1 µM)
T9 construct: purchased Ambit Biosciences (scanMAXX KINOMEscan)
T9 sequence (Q9UKE5 whole entry): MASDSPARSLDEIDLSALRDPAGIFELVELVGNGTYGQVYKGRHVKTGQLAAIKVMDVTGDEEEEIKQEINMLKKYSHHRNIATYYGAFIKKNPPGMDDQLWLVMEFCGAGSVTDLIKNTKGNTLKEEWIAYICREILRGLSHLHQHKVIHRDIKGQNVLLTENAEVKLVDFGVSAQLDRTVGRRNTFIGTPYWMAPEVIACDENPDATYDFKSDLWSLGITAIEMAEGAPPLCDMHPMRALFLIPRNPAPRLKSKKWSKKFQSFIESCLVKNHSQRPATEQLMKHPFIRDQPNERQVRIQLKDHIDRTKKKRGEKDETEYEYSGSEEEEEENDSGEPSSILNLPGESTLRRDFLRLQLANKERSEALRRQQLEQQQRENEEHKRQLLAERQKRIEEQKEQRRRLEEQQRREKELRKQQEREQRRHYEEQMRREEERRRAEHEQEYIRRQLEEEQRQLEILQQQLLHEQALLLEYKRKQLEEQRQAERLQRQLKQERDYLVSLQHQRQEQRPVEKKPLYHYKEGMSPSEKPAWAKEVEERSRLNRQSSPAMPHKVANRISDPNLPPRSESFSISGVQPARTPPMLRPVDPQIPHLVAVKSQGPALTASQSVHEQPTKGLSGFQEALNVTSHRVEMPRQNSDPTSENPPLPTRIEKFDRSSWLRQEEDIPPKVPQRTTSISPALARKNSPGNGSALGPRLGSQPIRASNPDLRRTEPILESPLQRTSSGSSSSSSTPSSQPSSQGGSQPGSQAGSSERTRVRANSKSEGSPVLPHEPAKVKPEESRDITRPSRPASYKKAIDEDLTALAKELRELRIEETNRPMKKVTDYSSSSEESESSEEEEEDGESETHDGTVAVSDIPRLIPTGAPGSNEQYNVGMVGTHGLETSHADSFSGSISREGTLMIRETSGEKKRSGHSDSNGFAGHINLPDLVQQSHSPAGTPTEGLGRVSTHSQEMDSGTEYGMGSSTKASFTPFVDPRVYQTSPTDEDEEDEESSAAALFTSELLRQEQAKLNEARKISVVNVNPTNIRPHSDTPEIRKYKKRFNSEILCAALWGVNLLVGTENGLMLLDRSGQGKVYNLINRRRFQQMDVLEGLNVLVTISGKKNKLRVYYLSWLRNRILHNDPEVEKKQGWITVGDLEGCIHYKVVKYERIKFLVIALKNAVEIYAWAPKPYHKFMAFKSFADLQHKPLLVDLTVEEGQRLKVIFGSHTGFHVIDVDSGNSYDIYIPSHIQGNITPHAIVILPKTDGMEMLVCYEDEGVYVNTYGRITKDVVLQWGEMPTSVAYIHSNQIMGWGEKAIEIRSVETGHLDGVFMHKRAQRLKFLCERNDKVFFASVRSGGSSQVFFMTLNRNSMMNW

panel of 442 kinases [10] = target: T10, panel of 442 kinases (Homo sapiens, UniProt P28482); details: ERK2; for remaining activity at 1 µM: read-out: % of control at 1 µM
T10 construct: purchased Ambit Biosciences (scanMAXX KINOMEscan)

panel of 442 kinases [11] = target: T11, panel of 442 kinases (Homo sapiens, UniProt Q96GD4); details: AURKB; for remaining activity at 1 µM: read-out: % of control at 1 µM
T11 construct: purchased Ambit Biosciences (scanMAXX KINOMEscan)

panel of 442 kinases [12] = target: T12, panel of 442 kinases (Homo sapiens, UniProt P36888, N841I); details: kinase FLT3(N841I); for remaining activity at 1 µM: read-out: % of control at 1 µM
T12 construct: purchased Ambit Biosciences (scanMAXX KINOMEscan)
T12 sequence (P36888 27-993 N841I): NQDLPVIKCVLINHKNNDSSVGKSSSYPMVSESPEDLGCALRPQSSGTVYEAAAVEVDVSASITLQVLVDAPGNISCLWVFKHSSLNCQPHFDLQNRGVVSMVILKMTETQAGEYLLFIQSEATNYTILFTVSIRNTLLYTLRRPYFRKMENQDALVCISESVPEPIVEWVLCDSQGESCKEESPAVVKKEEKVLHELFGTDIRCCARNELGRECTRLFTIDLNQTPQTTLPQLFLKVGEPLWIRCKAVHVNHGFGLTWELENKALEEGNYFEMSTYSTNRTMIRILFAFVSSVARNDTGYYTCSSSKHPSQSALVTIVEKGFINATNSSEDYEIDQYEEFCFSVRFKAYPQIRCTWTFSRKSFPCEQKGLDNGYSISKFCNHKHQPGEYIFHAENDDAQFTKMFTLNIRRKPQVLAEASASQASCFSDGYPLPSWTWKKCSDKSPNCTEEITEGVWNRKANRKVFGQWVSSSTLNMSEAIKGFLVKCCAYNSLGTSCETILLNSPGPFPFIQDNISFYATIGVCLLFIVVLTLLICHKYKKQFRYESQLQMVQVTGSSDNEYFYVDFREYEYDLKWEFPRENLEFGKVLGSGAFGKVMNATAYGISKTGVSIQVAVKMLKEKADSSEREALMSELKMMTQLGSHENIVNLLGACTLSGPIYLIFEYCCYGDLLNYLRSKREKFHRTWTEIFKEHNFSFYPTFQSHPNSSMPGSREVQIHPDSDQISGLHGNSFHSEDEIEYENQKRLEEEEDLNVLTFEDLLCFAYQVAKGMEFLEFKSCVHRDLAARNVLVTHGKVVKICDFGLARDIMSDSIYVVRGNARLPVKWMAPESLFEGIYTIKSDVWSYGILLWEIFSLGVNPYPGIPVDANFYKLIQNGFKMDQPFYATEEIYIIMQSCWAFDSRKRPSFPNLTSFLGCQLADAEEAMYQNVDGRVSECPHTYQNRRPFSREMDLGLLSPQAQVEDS

[13] = 10 µM, read-out: % of control at 10 µM

T1 sequence (Q15569 whole entry): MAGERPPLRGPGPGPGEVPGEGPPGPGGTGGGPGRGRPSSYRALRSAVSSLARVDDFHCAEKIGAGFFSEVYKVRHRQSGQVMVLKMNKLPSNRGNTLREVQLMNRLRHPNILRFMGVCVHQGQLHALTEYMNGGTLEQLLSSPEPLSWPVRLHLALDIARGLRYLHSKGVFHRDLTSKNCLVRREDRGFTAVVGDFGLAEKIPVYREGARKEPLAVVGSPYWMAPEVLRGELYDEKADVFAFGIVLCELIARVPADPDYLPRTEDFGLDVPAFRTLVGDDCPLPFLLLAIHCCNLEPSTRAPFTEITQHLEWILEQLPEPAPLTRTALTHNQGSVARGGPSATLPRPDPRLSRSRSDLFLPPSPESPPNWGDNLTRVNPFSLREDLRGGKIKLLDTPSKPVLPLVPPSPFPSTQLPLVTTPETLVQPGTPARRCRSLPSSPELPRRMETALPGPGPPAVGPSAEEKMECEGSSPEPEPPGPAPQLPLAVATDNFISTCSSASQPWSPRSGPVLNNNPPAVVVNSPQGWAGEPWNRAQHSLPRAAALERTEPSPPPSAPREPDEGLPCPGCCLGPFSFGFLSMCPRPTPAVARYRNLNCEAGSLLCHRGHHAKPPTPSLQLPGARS

Row | Compound | remaining activity at 1 µM (panel of 442 kinases [1]) [%] | remaining activity at 1 µM (panel of 442 kinases [2]) [%] | remaining activity at 1 µM (panel of 442 kinases [3]) [%] | remaining activity at 1 µM (panel of 442 kinases [4]) [%] | remaining activity at 1 µM (panel of 442 kinases [5]) [%] | remaining activity at 1 µM (panel of 442 kinases [6]) [%] | remaining activity at 1 µM (panel of 442 kinases [7]) [%] | remaining activity at 1 µM (panel of 442 kinases [8]) [%] | remaining activity at 1 µM (panel of 442 kinases [9]) [%] | remaining activity at 1 µM (panel of 442 kinases [10]) [%] | remaining activity at 1 µM (panel of 442 kinases [11]) [%] | remaining activity at 1 µM (panel of 442 kinases [12]) [%] | other results
1 | Nc1cc(C(F)(F)F)c(-c2cc(N3CCOCC3)nc(N3CCOCC3)n2)cn1 [Buparlisib] | 92 | 89 | 71 | 96 | 96 | 100 | 100 | 100 | 100 | 100 | 93 | 86 | remaining activity at 10 µM (panel of 442 kinases [1]; 10 µM, read-out: TESK1 (% of control at 10 µM)): 100%; remaining activity at 10 µM (panel of 442 kinases [2]; [13]): 86%; remaining activity at 10 µM (panel of 442 kinases [3]; [13]): 89%; remaining activity at 10 µM (panel of 442 kinases [4]; 10 µM, read-out: TRKB (% of control at 10 µM)): 80%; remaining activity at 10 µM (panel of 442 kinases [5]; [13]): 99%; remaining activity at 10 µM (panel of 442 kinases [6]; [13]): 100%; remaining activity at 10 µM (panel of 442 kinases [7]; [13]): 100%; remaining activity at 10 µM (panel of 442 kinases [8]; 10 µM, read-out: YANK1 (% of control at 10 µM)): 100%; remaining activity at 10 µM (panel of 442 kinases [9]; 10 µM, read-out: TNIK (% of control at 10 µM)): 100%; remaining activity at 10 µM (panel of 442 kinases [10]; [13]): 78%; remaining activity at 10 µM (panel of 442 kinases [11]; [13]): 100%; remaining activity at 10 µM (panel of 442 kinases [12]; [13]): 97%
2 | Cn1c(=O)n(-c2ccc(C(C)(C)C#N)cc2)c2c3cc(-c4cnc5ccccc5c4)ccc3ncc21 [Dactolisib, 2-methyl-2-[4-(3-methyl-2-oxo-8-quinolin-3-yl-2,3-dihydroimidazo[4,5-c]quinolin-1-yl)-phenyl] propionitrile] | 100 | 100 |  | 61 | 97 | 79 | 93 | 100 |  | 88 |  | 24 | 
3 | COc1ncc(-c2ccc3nccc(-c4ccnnc4)c3c2)cc1NS(=O)(=O)c1ccc(F)cc1F [Omipalisib] | 73 | 100 | 100 | 100 | 85 | 100 | 100 | 100 | 100 | 100 | 100 | 70 | 
4 | FC(F)c1nc2ccccc2n1-c1nc(N2CCOCC2)nc(N2CCOCC2)n1 [ZSTK474, 2-(difluoromethyl)-1-[4,6-di(4-morpholinyl)-1,3,5-triazin-2-yl]-1H-benzimidazole] | 96 | 100 | 100 | 100 | 100 | 100 | 95 | 100 | 100 | 100 | 90 | 90 | 

From publication PMC5564600 (Oncotarget, 2017)
